Laboratory results from PubChem BioAssay AID449745 (Broad Institute, 2010).
Records with an inconclusive call do not appear. The source made the active and inactive calls. How the calls were made is not given here.

Biological target: Zinc finger protein mex-5 (Caenorhabditis elegans) (UniProt Q9XUB2)
Assay: MEX-5 RNA-binding inhibition confirmation – biochemical, C. elegans, fluorescence polarization, dose retest (AID 449745);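 further: potency is for blocking Mex-5 binding to labeled TCR2 RNA like unlabeled competitor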
Settings: Mex-5 / TCR-2 RNA binding

Chain of Zinc finger protein mex-5 (Caenorhabditis elegans) (Q9XUB2 whole entry, looked up): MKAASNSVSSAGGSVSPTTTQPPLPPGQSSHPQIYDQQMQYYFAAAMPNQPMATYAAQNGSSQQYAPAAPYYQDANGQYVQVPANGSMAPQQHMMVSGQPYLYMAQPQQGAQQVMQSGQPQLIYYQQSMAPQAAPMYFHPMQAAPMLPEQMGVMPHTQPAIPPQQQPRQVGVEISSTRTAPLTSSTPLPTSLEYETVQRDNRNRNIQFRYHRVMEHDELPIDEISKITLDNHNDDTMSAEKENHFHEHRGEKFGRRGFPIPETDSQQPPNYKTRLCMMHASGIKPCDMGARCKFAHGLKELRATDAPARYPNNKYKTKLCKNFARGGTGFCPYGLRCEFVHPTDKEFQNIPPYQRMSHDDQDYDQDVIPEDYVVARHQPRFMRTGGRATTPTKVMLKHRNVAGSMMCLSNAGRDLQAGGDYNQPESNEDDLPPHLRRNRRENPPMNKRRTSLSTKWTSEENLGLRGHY

Structure (SMILES) | AC50
Cc1ccc(N=Nc2c(O)n(CN3CCOCC3)c3ccccc23)cc1 | 11.4 µM
COc1ccc2ccccc2c1CNCc1ccccn1 | > 38 µM (inactive)
NS(=O)(=O)c1ccc(N=Nc2c(=O)[nH]n3c(=O)c4c([nH]c23)CCCC4)cc1 | < 0.3 µM
N#C/C(=C\c1cn(-c2ccccc2)nc1-c1cc2ccccc2o1)c1nc2ccccc2[nH]1 | > 38 µM (inactive)
CNC(=O)c1c(NC(=O)c2ccc(S(=O)(=O)N(C)c3ccccc3)cc2)sc2c1CCN(C(C)C)C2 | 25.2 µM
Cc1cc(/C=C2\SC(=S)N(Cc3ccco3)C2=O)c(C)n1-c1ccccc1 | 16.6 µM
Cn1nc([N+](=O)[O-])c(C(C#N)c2nc3ccccc3n2C)c(Cl)c1=O (stereo not given) | 22.9 µM
CCOC(=O)NC(=O)COC(=O)c1ccc(Sc2ncn[nH]2)c([N+](=O)[O-])c1 | 16.1 µM
CCOC(=O)c1ccc(-c2ccc(/C=C(\C#N)C(=O)NCC3CCCO3)o2)cc1 (stereo not given) | > 38 µM (inactive)
Cc1ccc(O)c(C(=O)c2cc(C#N)c(=O)n(-c3nccs3)c2)c1 | 14.2 µM
Cc1cc2c(n1-c1ccc(C(=O)O)cc1)CCCCC2 | 9.57 µM
CCNC(=S)N/N=C/c1sc(N2CCCCC2)nc1-c1cccs1 | 10 µM
COc1ccccc1N1C(C)=CC(=C(C#N)c2nc3ccccc3s2)C=C1C | 13.4 µM
CCc1cc[n+](-c2nc3ccccc3nc2[N-]S(=O)(=O)c2ccc(Br)s2)cc1 | 4.86 µM
Cc1nn2c(N)csc2nc1=O | 30 µM
COCC1CCN(Cc2c(C(=O)N3CCc4ccccc4C3)nc3ccc(Cl)cn23)C1 (stereo not given) | 21.5 µM
N#Cc1c(C#N)c(O)c2ccccc2c1O | 11.3 µM
CCOc1ccc(/C=C/C(=O)c2c(O)c3ccccc3oc2=O)cc1 | > 38 µM (inactive)
O=C1/C(=C\c2ccc(Br)cc2)SC(=S)N1NS(=O)(=O)c1ccccc1 | 17.7 µM
COc1cccc(/C(O)=C/c2nc3ccc(C(=O)NCCc4ccc(Cl)cc4)cc3[nH]c2=O)c1 | 23.3 µM
COc1ccc(N/C=C/C(=O)c2ccc3c(c2)OCO3)cc1OC | > 38 µM (inactive)
N#CC1(C#N)C(c2ccccc2)OC23CCCCC2C1(C#N)C(=N)O3 (stereo not given) | > 38 µM (inactive)
CN(C)c1ccc(N=Cc2nc(-c3ccccc3)oc2OC(=O)c2cccc(Br)c2)cc1 | > 38 µM (inactive)
CC(=O)Nc1ccc(N2C(=O)c3cccc4c(O)ccc(c34)C2=O)cc1 | 3.81 µM
O=c1[nH]n2c(=O)c3c([nH]c2c1N=Nc1ccccc1)CCC3 | < 0.3 µM
CN(N=Nc1ccc([N+](=O)[O-])cc1)c1ccccc1 | 9.51 µM
CC1CCN(Cc2c(O)ccc3c2O/C(=C\c2ccco2)C3=O)CC1 | 6.87 µM

Structure (SMILES) | AC50
O=C(Nc1ccc2nc(-c3ccco3)c(-c3ccco3)nc2c1)N1CCN(c2ccccn2)CC1 | > 38 µM (inactive)
COC(=O)CCC(=O)OC1(C)C(=O)C2=CN(Cc3ccco3)C(c3ccc(OC)cc3)=CC2=C(Br)C1=O (stereo not given) | 21.1 µM
CC(C)(C)OC(=O)NCCCC1=CC2=CC(=O)C(C)(O)C(=O)C2=CO1 (stereo not given) | 19.3 µM
Cc1cccc(-n2c(O)c(C=Nc3ccc4c(c3)OCO4)c3ccccc3c2=O)n1 | 39 µM
Oc1ccc(/C=N/n2c(-c3ccccc3)n[nH]c2=S)cc1Br | 13.1 µM
O=C(O)c1ccc(Cl)c2c1C1C=CCC1C(c1ccccn1)N2 (stereo not given) | 29 µM
CCCN1CCN(S(=O)(=O)c2cn(C)nc2C)CC1 | 39.9 µM
Cc1nn(C)cc1C(=O)NNC(=S)Nc1ccccc1 | 19.5 µM
Cc1nc2ccccc2n1/N=C/c1ccc([N+](=O)[O-])s1 | > 38 µM (inactive)
Cc1cc2ccccc2n1CCNC(=O)c1ccc(Br)o1 | > 38 µM (inactive)
COc1ccccc1C(=O)Oc1ccc2c(c1)O/C(=C\c1ccncc1)C2=O | 10.8 µM
CN(C)c1ccc(/C=C/c2nc3ccccc3c(=O)[nH]2)cc1 | > 38 µM (inactive)
CCOC(=O)C1CCN(c2nc3ccccc3nc2C(C#N)C(=O)OC(C)C)CC1 (stereo not given) | > 38 µM (inactive)
O=C(O)COc1ccccc1C(Nc1cccnc1)c1cc(Cl)c2cccnc2c1O (stereo not given) | 10.5 µM
O=c1c2ccccc2nc(/C=C/c2ccc([N+](=O)[O-])o2)n1-c1ccc(O)cc1 | > 38 µM (inactive)
CC1(C)CC(=O)C2=C(C1)N=c1s/c(=C/c3ccc(F)c(F)c3)c(=O)n1C2c1ccc(F)cc1 (stereo not given) | > 38 µM (inactive)
O=C(Nc1ccccc1F)C(=Cc1sc(N2CCOCC2)nc1-c1ccccc1)C(=O)Nc1ccccc1F | 29.4 µM
COc1cc([N+](=O)[O-])ccc1N/C=C/C(=O)c1cccs1 | > 38 µM (inactive)
Oc1ccc(Br)cc1C=Nc1cccn2cc(-c3ccccc3)nc12 | > 38 µM (inactive)
O=C1c2cccc3c(N4CCCCC4)ccc(c23)C(=O)N1c1ccccc1O | 28.7 µM
CCOC(=O)c1c(-c2ccccc2)oc2ccc(OCC(=O)NNC(=O)CCC(=O)O)cc12 | 15.1 µM
CCOC(=O)/C(C#N)=C/c1ccc(-c2ccsc2C(=O)OC)o1 | > 38 µM (inactive)
CCOC(=O)C1=C(C)N=c2s/c(=C\c3cccn3C)c(=O)n2C1c1cccc(OC)c1OC (stereo not given) | 13.8 µM
O=C1CSC(=S)N1/N=C/c1cc(Br)c(O)c(Br)c1 | > 38 µM (inactive)
O=c1ccc2cc3c([nH]c4ccc(Br)cc43)oc-2c1O | 3.77 µM
Cn1ncc2c(NNC(=O)c3ccc(Cl)cc3Cl)ncnc21 | 12.7 µM
O=C(N/N=C/c1c(O)n(Cc2ccccc2)c(=O)[nH]c1=O)c1ccccc1O | 10.5 µM

Structure (SMILES) | AC50
CC1=NN2C(=N)/C(=C\c3ccc(SCc4ccccc4)o3)C(=O)N=C2S1 | 38 µM
O=C(O)C1Nc2c(Cl)cc(Cl)cc2C2C=CCC12 (stereo not given) | 33.2 µM
CCc1ccc(N2C(=O)NC(=O)/C(=C\c3cccn3CCOc3ccc(C(C)C)cc3)C2=O)cc1 | > 38 µM (inactive)
NC(=S)NNc1cccc2cccnc12 | 0.987 µM
COC/C=C/C1=CC2=CC(=O)C(C)(O)C(=O)C2=CO1 (stereo not given) | 13 µM
Cc1cccc(N=Nc2c(O)[nH]c3ccc(F)cc23)c1 | 4.46 µM
CCCCC1=CC2=C(c3ccco3)C(=O)C(C)(OC(=O)c3ccc(OC)cc3)C(=O)C2=CN1C(CO)CO (stereo not given) | > 38 µM (inactive)
CCCCCCc1cc2cc(C(=O)NC)c(=N)oc2cc1O | 6.09 µM
O=C(O)c1ccc(NS(=O)(=O)c2ccc3c(c2)C(=O)c2ccccc2C3=O)cc1 | 28.4 µM
COc1ccc(/C=C/C(=O)c2c(O)n(CCC3=CCCCC3)c(=O)[nH]c2=O)cc1 | > 38 µM (inactive)
COc1cc2c(cc1N/C=C(\C#N)c1nc(-c3ccc(F)cc3)cs1)oc1ccccc12 | > 38 µM (inactive)
O=c1[nH]c(-[n+]2ccccc2)c(/C=N/NC([S-])=Nc2ccccc2)s1 | 15.1 µM
O=C(N/N=C/c1c(O)n(C2CC2)c(=S)[nH]c1=O)c1ccccc1O | 27.5 µM
O=C(CSc1ncn[nH]1)Nc1c(Br)cc([N+](=O)[O-])cc1Br | 14 µM
O=C(C1=NN(c2ccccc2)C2C(=O)N(c3ccccc3)C(=O)C12)c1ccccc1 (stereo not given) | 32 µM
Cc1cc2n(n1)C(c1c[nH]c3ccccc13)Nc1ccccc1-2 (stereo not given) | > 38 µM (inactive)
O=C(Cc1c(O)c2ccccc2oc1=O)c1ccc(C(F)(F)F)cc1 | 37.5 µM
Nc1nnnn1/N=C/c1cc(Cl)ccc1O | 37.5 µM
Nc1c(C(=O)C2CC2)sc2nc(-c3cccs3)cc(C(F)(F)F)c12 | > 38 µM (inactive)
CC(C)OC(=O)c1c2c(n3ccccc13)C(=O)c1ccccc1C2=O | 19.1 µM
CN(C)C1C(=O)C(C(N)=O)=C(O)C2(O)C(=O)C3=C(O)c4c(O)cccc4C(C)(O)C3CC12 (stereo not given) | > 38 µM (inactive)
COC(=O)c1cc(O)c(O)c(O)c1 | 25.4 µM
Cc1c(N=NC2=C(O)CCCC2=O)c(=O)n(-c2ccccc2)n1C | > 38 µM (inactive)
CCOC(=O)C(=NC(C)C)NNc1cc(Cl)ccc1Cl | > 38 µM (inactive)
Cc1ccc(NC(=O)/C(C#N)=C(\N)C(Cl)(Cl)Cl)nc1 | 8.19 µM
Cc1nnc(SCc2nc3sc4c(c3c(=O)[nH]2)CCCC4)n(N)c1=O | > 38 µM (inactive)
O=C(N/N=C/c1oc(O)c2ccccc12)c1ccccc1O | > 38 µM (inactive)

Structure (SMILES) | AC50
O=C(N/N=C/c1cc2c(cc1Cl)OCO2)c1ccccn1 | > 38 µM (inactive)
COc1cccc(NC(=O)CSc2nc3ccccc3nc2N2CCOCC2)c1 | > 38 µM (inactive)
O=C(Nc1nc2c(s1)CN(Cc1ccccc1)CC2)c1cccc(S(=O)(=O)N2CCc3ccccc32)c1 | > 38 µM (inactive)
Cc1cc[n+](-c2[nH]c(=O)sc2/C=N/N=C(\[O-])c2ccncc2)cc1 | 29.4 µM
NC1=NC(=O)/C(=C\C=C\c2ccccc2)S1 | > 38 µM (inactive)
CCC(C)[C@H](NC(=O)C1CC(=O)N(c2ccc3c(c2)OCO3)C1)C(=O)NC1CCCCC1 (stereo not given in full) | 35.8 µM
COc1cc(OC)c(OC)cc1/C=C1/Cc2ccccc2C1=O | 8.04 µM
Cn1c(O)c(/C=N/NC(=O)c2cc3ccccc3cc2O)c2ccccc21 | 5.01 µM
O=c1cc[nH]c2c1ccc1c(=O)cc[nH]c12 | 25 µM
COc1cc(C(=O)NC(=S)NNC(=O)c2cnccn2)cc(OC)c1OC | < 0.3 µM
NC(=O)c1c(NC(=O)C2COc3ccccc3O2)sc2c1CCN(Cc1ccccc1)C2 (stereo not given) | > 38 µM (inactive)
O=C1CCCC(O)=C1N=Nc1ccc(C(=O)O)cc1 | 32.9 µM
O=C(O)c1ccccc1NS(=O)(=O)c1cccc(-n2sc3ccccc3c2=O)c1 | 7.89 µM
Oc1[nH]c2ccccc2c1N=NC(=S)N1CCOCC1 | 6.32 µM
Nc1ccc(N(CCO)CCO)cc1 | > 38 µM (inactive)
CC1(OC(=O)C2CCCC2)C(=O)C=C2C=C(c3ccc(C#N)cc3)OC=C2C1=O (stereo not given) | 9.38 µM
Nc1nnc(CC(=O)N/N=C/c2cc([N+](=O)[O-])cc(Br)c2O)s1 | 2.69 µM
CN1CC=C2C(C#N)=C(N)C(C#N)(C#N)[C@H](c3ccoc3)[C@H]2C1 | 32.4 µM
COc1ccc(C(=O)c2c(N)sc3c2CCN(C)C3)cc1 | > 38 µM (inactive)
COc1ccc(Cn2c(O)c(/C=N/NC(=O)c3ccccc3O)c(=O)[nH]c2=O)cc1 | 6.41 µM
N#C/C(=C\c1cccs1)C(=O)Nc1ccccn1 | 32.6 µM
CC(=O)OC1=C(O)C(=O)c2ccccc2C1=O | 10.3 µM
CC1CN(c2nc3ccccc3nc2C(C#N)C(=O)NCc2ccc3c(c2)OCO3)CC(C)O1 (stereo not given) | 23.8 µM
CCOC(=O)c1c(-c2ccc(C)o2)csc1NC(=S)NC(=O)c1cccs1 | > 38 µM (inactive)
